# Measurements reported in ChEMBL document CHEMBL1201862, “PubChem BioAssay data set” (2004).
# The source made the active and inactive calls.
# How the values were obtained:
# Vero = test: cells; type: functional, cell-based; conditions: Chlorocebus sabaeus
# [1] = inhibitors of intracellular T. cruzi replication, confirmation, NIH3T3 host cells, beta-gal luminescence (AID 2044); type: functional, cell-based;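 also: intracellular parasites grown in NIH/3T3 mouse fibroblasts as host cells; luminescent beta-galactosidase reporter signal from transgenic T. cruzi replicating inside host cells; inhibitors lower the luminescence signal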
# [2] = molecular target: G-protein coupled receptor 55 (Homo sapiens, UniProt Q9Y2T6); test: GPR55 antagonists blocking LPI-driven arrestin recruitment, primary screen, imaging, U2OS, beta-arrestin-GFP, LPI agonist (AID 2013); type: functional;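 also: antagonist potency measured as reduced agonist-driven arrestin aggregation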
# [3] = cytotoxicity toward NIH3T3 fibroblasts, dose response, counter-screen, cell-based, ATP luminescence, mouse fibroblasts (AID 2010); type: functional;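 also: cells exposed to compound for about 90 hours before reading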
# [4] = molecular target: T1, Alkaline phosphatase, tissue-nonspecific isozyme (Homo sapiens, UniProt P05186); test: human TNAP enzyme inhibitors, SAR follow-up, biochemical, luminescent, dose response (AID 1056)
# T1 sequence (P05186 whole entry): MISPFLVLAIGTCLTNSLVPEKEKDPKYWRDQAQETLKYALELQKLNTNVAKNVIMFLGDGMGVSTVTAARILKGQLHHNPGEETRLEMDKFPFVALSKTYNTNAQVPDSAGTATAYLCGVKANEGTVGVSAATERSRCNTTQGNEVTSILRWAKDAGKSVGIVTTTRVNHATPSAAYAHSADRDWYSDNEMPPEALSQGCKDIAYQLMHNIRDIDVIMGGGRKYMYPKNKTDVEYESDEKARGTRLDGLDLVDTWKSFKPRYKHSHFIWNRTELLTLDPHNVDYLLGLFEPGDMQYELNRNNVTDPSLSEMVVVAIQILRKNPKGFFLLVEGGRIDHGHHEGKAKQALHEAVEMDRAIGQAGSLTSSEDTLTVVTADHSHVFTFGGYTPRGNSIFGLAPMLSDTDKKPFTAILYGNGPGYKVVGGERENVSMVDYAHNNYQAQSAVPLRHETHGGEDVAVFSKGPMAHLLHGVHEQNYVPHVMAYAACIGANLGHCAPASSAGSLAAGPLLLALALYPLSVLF
# Bcl-2-related protein A1 = molecular target: T2, Bcl-2-related protein A1 (Mus musculus, UniProt Q07440); type: functional;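 also: confirmatory dose–response counterscreen on Bfl-1, used to check hits from a UBC13 polyubiquitin inhibitor campaign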
# T2 sequence (Q07440 whole entry): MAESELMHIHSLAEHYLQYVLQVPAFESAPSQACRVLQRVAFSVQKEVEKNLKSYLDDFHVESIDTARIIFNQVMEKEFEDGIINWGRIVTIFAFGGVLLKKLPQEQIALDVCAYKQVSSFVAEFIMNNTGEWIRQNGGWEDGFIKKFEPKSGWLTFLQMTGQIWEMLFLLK
# [5] = molecular target: T3, Ubiquitin-conjugating enzyme E2 N (Homo sapiens, UniProt P61088); type: functional
# T3 sequence (P61088 whole entry): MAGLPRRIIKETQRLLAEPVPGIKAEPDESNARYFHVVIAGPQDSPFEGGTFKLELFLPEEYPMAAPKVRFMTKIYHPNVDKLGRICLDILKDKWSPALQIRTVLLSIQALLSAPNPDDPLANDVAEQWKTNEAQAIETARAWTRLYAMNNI
# [6] = molecular target: T3, Ubiquitin-conjugating enzyme E2 N; type: functional; remark: listed apart in the source
# [7] = molecular target: Peroxisome proliferator-activated receptor gamma/Nuclear receptor coactivator 2 (Homo sapiens, UniProt P37231); test: (§1) TR-FRET dose response biochemical High Throughput Screening assay for agonists of the steroid receptor coactivator 2 (SRC-2) recruitment by the peroxisome proliferator-activated receptor gamma (PPAR gamma): non-selective agonists. [Related pubchem assays: 1297, 1032 ]; type: functional
# [8] = molecular target: Peroxisome proliferator-activated receptor gamma/Nuclear receptor coactivator 3 (Homo sapiens, UniProt P37231); test: as §1, with “3 (SRC-3)” for “2 (SRC-2)”, “1301 (Confirmation screen.), 1048 (Primary screen.)]” for “1297, 1032 ]”; type: functional
# [9] = molecular target: Peroxisome proliferator-activated receptor gamma/Nuclear receptor coactivator 1 (Homo sapiens, UniProt P37231); test: as §1, with “1 (SRC-1)” for “2 (SRC-2)”, “assays (depositor defined):AID1300, AID1808, AID504735, AID631]” for “assays: 1297, 1032 ]”; type: protein assay
# Fatty acid synthase = Fatty acid synthase (Homo sapiens, UniProt P49327); test: FAS thioesterase domain inhibitors, dose response, biochemical, kinetic fluorescence intensity (AID 624326); type: functional;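 also: rate of fluorescence rise from hydrolysis of a fluorogenic O-methyl fluorescein ester substrate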
# H9c2 = test: cells; type: functional, cell-based; conditions: Rattus norvegicus, H9c2, Myocardium;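 also: confirmatory concentration-response retest of ultra-high-throughput screening hits for modulation of myocardial damage; cell death induced by hydrogen peroxide oxidative stress; compound pretreatment for 60 min then peroxide exposure for 2 h; potency is for protecting the cells against peroxide damage rather than for killing them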
# Hexokinase = molecular target: T4, Hexokinase (Trypanosoma brucei, UniProt Q38C41); test: Confirmation assay for inhibitors of Trypanosoma brucei hexokinase 1-Analogue-first series. [Related pubchem assays (depositor defined):AID1430, AID1632, AID2516, AID2560, AID2579, AID2600, AID449725, AID492951]; type: functional
# T4 sequence (Q38C41 whole entry): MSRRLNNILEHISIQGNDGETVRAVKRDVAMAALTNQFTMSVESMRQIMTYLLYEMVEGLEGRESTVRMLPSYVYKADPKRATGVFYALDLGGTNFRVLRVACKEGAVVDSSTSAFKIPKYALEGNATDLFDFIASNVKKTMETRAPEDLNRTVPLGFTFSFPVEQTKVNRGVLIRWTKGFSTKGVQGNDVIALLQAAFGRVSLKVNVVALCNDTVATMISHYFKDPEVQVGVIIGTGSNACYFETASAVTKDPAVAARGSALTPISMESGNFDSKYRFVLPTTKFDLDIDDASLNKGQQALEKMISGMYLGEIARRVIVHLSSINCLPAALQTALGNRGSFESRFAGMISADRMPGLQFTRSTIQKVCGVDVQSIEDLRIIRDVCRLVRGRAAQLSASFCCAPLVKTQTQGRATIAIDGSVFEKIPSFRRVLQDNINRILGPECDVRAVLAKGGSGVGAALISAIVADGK
# Nonstructural protein 1 = Nonstructural protein 1 (Influenza A virus, UniProt Q194T2); type: functional, Influenza A virus (A/California/07/2009(H1N1))
# Hexokinase HKDC1 = molecular target: T5, Hexokinase HKDC1 (Homo sapiens, UniProt Q2TB90); test: HKDC1 hexokinase activators, dose response, biochemical, W721R variant (AID 504730); type: functional
# T5 sequence (Q2TB90 whole entry): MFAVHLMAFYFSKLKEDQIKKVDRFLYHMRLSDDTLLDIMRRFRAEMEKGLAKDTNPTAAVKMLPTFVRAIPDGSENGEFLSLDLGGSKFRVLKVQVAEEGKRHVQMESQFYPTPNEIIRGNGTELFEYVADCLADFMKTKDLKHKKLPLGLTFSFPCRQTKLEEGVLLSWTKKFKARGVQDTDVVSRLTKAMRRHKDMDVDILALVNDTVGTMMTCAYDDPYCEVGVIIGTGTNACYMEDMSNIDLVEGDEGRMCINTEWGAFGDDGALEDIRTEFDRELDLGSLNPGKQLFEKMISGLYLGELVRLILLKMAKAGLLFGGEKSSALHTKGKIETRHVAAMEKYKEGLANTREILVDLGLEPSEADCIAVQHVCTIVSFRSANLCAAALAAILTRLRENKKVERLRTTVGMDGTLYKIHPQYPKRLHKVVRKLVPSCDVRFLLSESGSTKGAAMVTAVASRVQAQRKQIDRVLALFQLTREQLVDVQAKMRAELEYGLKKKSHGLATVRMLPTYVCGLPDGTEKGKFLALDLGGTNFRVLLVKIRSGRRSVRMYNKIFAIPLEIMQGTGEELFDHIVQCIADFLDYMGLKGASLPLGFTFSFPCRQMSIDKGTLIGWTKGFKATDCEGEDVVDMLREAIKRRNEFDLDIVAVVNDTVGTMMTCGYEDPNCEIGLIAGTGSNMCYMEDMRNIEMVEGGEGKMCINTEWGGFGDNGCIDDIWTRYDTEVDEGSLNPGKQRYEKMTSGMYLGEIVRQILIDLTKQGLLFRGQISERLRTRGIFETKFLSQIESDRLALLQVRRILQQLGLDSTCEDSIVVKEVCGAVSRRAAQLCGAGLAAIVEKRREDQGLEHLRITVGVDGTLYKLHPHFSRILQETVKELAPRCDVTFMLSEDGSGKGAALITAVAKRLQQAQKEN
# Hexokinase-1 = molecular target: T6, Hexokinase-1 (Homo sapiens, UniProt P19367); test: hexokinase 1 activators, dose response, selectivity assay for HKDC1 activator project, biochemical (AID 504762); type: functional
# T6 sequence (P19367 whole entry): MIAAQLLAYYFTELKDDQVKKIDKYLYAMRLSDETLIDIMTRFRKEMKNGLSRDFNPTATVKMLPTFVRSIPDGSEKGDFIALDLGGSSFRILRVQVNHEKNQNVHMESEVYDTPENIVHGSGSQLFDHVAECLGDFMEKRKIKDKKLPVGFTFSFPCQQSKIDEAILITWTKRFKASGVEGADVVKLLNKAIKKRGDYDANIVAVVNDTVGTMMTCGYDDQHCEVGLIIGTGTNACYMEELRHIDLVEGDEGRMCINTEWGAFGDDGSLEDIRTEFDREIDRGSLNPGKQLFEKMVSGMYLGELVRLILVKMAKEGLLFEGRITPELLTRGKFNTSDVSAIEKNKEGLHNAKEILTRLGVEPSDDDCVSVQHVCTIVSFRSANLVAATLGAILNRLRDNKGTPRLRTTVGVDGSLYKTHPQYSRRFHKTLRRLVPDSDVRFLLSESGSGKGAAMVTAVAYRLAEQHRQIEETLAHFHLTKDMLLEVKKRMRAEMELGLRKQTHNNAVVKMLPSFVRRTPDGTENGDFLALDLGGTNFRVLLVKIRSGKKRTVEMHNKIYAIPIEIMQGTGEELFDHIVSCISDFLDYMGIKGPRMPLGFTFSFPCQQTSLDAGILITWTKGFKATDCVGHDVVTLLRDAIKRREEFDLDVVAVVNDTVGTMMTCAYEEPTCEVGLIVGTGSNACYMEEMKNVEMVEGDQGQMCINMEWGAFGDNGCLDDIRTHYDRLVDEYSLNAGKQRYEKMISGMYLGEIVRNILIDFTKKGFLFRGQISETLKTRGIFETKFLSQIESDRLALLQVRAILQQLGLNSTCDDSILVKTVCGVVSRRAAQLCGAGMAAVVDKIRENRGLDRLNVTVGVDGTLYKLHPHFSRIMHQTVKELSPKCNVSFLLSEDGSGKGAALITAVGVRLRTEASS
# [10] = tested on: Streptococcus sp. 'group A'; test: growth inhibition of control SK(-) GAS strain, dose response, counter-screen for streptokinase expression inhibitor project, luminescence, kanamycin, BacTiterGlo, confirmation (AID 1900); type: functional, organism-based
# Streptococcus = test: Group A Streptococcus viability loss, dose response, counter-screen for streptokinase expression inhibitor project, luminescence, BacTiterGlo (AID 1915); type: functional, organism-based;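 also: potency for reduction of bacterial viability or growth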
# Streptokinase A = molecular target: T7, Streptokinase A (Streptococcus pyogenes serotype M1, UniProt P10520); test: S. pyogenes streptokinase expression inhibitors, potency, dose response, plasminogen activation absorbance, OD405 (AID 1914); type: functional, Streptococcus pyogenes M1 GAS;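 also: secreted streptokinase activity via plasminogen activation per viability signal from cell pellet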
# T7 sequence (P10520 whole entry): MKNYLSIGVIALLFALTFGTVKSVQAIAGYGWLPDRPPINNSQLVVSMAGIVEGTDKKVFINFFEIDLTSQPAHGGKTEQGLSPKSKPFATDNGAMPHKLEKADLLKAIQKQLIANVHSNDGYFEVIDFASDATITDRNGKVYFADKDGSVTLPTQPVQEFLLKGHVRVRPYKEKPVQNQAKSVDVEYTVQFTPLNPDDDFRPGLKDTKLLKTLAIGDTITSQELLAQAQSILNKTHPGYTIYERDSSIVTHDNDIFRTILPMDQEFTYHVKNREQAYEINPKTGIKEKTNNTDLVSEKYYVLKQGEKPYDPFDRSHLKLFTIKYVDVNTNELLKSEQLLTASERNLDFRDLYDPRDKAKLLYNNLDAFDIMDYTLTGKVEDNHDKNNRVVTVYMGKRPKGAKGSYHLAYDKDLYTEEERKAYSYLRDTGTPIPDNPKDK
# [11] = growth suppression of beta-catenin-knockout colon cells, dose response, cell-based, HCT116, human colon tumor (AID 1045); type: functional;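 also: HCT116 colon tumor cells with beta catenin knocked out; cells exposed to compound for 60 hours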
# [12] = growth suppression of PTEN-null colon cells, dose response, cell-based, HCT116 PTEN knockout (AID 1047); type: functional;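 also: HCT116 colon tumor cells with PTEN knocked out; cells exposed to compound for 60 hours before readout; potency for loss of cell viability measured by luminescence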
# Sequence of G-protein coupled receptor 55 (Q9Y2T6 whole entry): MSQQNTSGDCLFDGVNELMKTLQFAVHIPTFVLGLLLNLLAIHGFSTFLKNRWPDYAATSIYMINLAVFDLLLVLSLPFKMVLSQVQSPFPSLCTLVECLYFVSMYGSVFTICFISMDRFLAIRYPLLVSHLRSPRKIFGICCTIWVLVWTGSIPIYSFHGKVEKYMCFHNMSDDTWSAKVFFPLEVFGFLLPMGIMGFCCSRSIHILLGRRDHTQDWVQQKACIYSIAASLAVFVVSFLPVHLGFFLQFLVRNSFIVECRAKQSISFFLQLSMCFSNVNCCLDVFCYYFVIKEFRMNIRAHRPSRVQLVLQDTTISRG
# Sequence of Peroxisome proliferator-activated receptor gamma/Nuclear receptor coactivator 3 (P37231 whole entry): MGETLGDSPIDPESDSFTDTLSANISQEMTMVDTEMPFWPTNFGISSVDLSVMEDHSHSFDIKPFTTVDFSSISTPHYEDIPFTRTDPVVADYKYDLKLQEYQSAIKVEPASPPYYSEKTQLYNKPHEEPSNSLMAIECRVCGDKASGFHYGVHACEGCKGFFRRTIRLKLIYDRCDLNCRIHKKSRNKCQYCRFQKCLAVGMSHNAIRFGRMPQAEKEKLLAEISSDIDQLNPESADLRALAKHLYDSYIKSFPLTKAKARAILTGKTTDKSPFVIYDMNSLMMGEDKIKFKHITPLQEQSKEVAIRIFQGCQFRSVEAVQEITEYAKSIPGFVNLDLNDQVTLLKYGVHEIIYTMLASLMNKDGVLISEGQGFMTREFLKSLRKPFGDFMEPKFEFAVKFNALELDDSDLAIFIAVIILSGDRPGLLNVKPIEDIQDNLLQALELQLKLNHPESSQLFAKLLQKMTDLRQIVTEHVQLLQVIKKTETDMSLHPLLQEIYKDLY
# Sequence of Peroxisome proliferator-activated receptor gamma/Nuclear receptor coactivator 3 (Q9Y6Q9 whole entry, further chain): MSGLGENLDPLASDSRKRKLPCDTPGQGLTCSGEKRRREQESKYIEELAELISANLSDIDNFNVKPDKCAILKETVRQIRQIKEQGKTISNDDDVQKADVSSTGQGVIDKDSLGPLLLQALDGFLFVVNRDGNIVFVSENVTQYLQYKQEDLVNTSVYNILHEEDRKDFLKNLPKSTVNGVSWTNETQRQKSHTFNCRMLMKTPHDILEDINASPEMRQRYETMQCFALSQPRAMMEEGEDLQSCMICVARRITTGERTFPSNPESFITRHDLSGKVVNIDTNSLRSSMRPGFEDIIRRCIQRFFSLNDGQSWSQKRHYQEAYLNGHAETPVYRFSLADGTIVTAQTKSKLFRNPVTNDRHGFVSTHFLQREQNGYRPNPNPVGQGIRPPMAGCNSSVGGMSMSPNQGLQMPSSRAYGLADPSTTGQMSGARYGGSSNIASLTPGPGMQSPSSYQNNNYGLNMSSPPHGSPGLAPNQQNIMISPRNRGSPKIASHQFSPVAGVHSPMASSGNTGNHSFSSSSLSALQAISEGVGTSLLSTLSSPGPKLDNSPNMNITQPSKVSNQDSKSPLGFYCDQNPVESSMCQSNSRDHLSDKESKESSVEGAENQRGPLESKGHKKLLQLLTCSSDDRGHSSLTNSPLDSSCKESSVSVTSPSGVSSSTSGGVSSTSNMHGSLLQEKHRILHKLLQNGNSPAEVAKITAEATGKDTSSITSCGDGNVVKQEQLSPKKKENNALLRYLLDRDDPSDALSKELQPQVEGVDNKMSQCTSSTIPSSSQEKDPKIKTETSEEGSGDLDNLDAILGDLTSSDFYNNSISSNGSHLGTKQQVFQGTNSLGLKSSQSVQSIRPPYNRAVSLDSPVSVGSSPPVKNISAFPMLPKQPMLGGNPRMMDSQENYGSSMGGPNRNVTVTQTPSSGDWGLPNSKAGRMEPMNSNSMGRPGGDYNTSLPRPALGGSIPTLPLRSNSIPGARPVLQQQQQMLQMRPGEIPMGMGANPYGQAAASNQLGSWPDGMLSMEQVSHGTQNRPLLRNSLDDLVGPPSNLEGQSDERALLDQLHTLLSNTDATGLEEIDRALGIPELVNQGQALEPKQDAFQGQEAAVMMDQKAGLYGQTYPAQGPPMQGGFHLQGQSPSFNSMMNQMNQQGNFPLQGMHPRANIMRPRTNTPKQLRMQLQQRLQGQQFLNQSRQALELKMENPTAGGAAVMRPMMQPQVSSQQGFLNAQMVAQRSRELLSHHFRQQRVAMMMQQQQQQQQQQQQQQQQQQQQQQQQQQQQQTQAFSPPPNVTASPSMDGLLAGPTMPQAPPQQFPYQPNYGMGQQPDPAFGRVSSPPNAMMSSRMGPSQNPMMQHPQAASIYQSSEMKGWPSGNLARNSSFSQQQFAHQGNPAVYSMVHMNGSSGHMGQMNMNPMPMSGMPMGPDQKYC
# Sequence of Peroxisome proliferator-activated receptor gamma/Nuclear receptor coactivator 2 (P37231 whole entry): as the sequence (P37231 whole entry) above
# Sequence of Peroxisome proliferator-activated receptor gamma/Nuclear receptor coactivator 2 (Q15596 whole entry, further chain): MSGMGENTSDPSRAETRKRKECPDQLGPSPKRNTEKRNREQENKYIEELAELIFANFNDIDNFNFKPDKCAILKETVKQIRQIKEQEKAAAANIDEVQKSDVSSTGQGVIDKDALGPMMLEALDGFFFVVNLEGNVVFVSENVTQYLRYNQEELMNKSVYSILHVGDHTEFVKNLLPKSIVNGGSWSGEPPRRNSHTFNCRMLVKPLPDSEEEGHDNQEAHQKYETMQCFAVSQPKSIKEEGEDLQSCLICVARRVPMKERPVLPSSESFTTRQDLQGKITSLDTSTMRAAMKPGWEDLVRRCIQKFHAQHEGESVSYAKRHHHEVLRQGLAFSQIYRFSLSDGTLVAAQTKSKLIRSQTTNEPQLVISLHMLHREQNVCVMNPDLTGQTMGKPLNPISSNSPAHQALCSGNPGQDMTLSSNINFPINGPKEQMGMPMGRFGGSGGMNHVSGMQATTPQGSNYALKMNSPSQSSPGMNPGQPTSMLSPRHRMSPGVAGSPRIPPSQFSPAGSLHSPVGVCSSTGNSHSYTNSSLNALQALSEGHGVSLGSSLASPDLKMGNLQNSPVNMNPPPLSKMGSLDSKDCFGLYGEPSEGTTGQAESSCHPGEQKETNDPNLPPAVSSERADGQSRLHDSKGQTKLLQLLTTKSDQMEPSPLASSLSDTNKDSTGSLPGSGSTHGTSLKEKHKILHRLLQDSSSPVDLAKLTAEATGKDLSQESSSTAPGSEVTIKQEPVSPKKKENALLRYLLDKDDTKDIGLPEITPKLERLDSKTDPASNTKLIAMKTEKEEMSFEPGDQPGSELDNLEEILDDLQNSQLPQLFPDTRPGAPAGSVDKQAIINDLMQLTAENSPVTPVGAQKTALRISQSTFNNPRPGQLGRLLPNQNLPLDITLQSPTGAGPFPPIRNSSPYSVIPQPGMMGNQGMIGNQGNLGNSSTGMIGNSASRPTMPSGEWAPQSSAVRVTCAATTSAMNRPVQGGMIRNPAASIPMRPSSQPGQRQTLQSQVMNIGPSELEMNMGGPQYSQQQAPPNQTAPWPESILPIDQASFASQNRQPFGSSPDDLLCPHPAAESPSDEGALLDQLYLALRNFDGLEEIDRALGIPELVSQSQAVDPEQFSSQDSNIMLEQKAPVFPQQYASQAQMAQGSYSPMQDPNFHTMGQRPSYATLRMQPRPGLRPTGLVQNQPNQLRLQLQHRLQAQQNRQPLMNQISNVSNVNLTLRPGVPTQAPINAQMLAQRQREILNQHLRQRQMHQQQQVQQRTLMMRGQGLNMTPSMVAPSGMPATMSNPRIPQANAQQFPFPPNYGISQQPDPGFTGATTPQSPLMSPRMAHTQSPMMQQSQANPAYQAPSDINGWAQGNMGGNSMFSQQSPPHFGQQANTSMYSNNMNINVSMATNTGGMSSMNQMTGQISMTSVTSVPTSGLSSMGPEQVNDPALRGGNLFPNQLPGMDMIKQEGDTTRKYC
# Sequence of Nonstructural protein 1 (Q194T2 whole entry): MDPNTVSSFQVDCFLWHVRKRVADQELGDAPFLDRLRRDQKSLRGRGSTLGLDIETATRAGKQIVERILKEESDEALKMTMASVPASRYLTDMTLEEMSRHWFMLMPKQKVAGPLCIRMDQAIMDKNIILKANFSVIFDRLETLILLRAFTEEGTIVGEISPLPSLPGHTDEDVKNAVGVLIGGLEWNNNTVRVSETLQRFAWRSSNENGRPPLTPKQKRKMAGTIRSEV
structure (smiles),measurement,setting,value
COc1cccc(-c2ccc(NC(=O)C3CCCN(Cc4cnn(C)c4)C3)cc2)c1 (centres undefined),IC50,Vero,21.9 µM (active)
O=C(NC12CC3CC(CC(C3)C1)C2)c1ccc(-c2ccc(Cl)cc2)o1,EC50,[1],2.11 µM (active)
same,IC50,[2],0.598 µM (active)
same,EC50,[3],> 60 µM (not active)
COc1cc(C(=O)CSc2nc(C)cc(C)n2)ccc1O,IC50,[4],> 100 µM (inactive)
COC(=O)c1ccc(Cn2c(O)c(/N=N/C(=N)S)c3ccccc32)o1,IC50,Bcl-2-related protein A1,> 20 µM (inactive)
same,IC50,[5],14.1 µM (active)
same,IC50,[6],> 20 µM (inactive)
Nc1ccc(N2CCCCC2)c(S(=O)(=O)Nc2ccccc2Cl)c1,IC50,[2],3.53 µM (active)
O=C(Nc1nc(-c2ccc(S(=O)(=O)N3CCCC3)cc2)cs1)C1COc2ccccc2O1 (centres undefined),EC50,[7],27.7 µM (not active)
same,EC50,[8],> 79.4 µM (not active)
same,EC50,[9],31 µM (inactive)
same,IC50,Fatty acid synthase,1.28 µM (active)
same,IC50,H9c2,> 79 µM (inactive)
O=C(Nc1cc(Cl)ccc1C(=O)O)c1ccc(Cl)cc1,IC50,Hexokinase,> 25 µM (inactive)
Nn1cnnc1N/N=C/c1cc(Br)cc(Br)c1O,IC50,Nonstructural protein 1,10.7 µM (active)
same,EC50,Hexokinase HKDC1,> 80 µM (inactive)
same,EC50,Hexokinase-1,42.3 µM (inactive)
S=C(NCc1ccccn1)NN=Cc1ccccn1,IC50,Nonstructural protein 1,3.89 µM (active)
same,EC50,Hexokinase HKDC1,27.8 µM (inactive)
same,EC50,Hexokinase-1,> 80 µM (inactive)
CCOC(=O)C1CCN(C(=O)CSc2c3c(nc4ccccc24)CCC3)CC1,EC50,[7],> 79.4 µM (not active)
same,EC50,[8],> 79.4 µM (not active)
same,EC50,[9],> 79.4 µM (inactive)
COc1ccc(C(=O)NC(=S)N(Cc2ccccc2)Cc2ccccc2)cc1,EC50,[10],0.883 µM (active)
same,EC50,Streptococcus,14.5 µM (active)
same,IC50,[2],4.36 µM (active)
same,EC50,Streptokinase A,> 150 µM (not active)
CCOc1ccccc1NC(=O)C(OC(=O)c1ccc(O)cc1)c1ccccc1 (centres undefined),IC50,Bcl-2-related protein A1,> 20 µM (inactive)
same,IC50,[5],15.2 µM (active)
same,IC50,[6],> 20 µM (inactive)
same,EC50,[11],680 µM (active)
same,EC50,[12],729 µM (active)
O=C(NNC(=O)c1nn(-c2ccc(F)cc2)ccc1=O)c1ccccc1Cl,IC50,Bcl-2-related protein A1,> 20 µM (inactive)
same,IC50,[5],9.9 µM (active)
same,IC50,[6],4.29 µM (active)
CCOC(=O)N1CCC(NC(=O)CSc2cc(=O)n(CC)c3ccccc23)CC1,EC50,[7],> 79.4 µM (not active)
same,EC50,[8],> 79.4 µM (not active)
same,EC50,[9],> 79.4 µM (inactive)
